Ki data for 14 molecules are collected here from patent US9328138B2 (priority 2011, dated 2016).

The target of assay [1] is HCV NS3 protease genotype 3a (3A-1) (Hepatitis C virus genotype 3a, UniProt Q81258). Nature of the assay: HCV NS3 protease time-resolved fluorescence (TRF) assay, genotype 3a. Conditions: Ki 3a. The assay is classed as biochemical. The gist of the method: (§1)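 Steps: compound plus NS3/NS4A enzyme for 10 minutes; add peptide substrate to 25 nM; let cleavage proceed 6 hours at room temperature; read product fluorescence (340 nm excitation, 615 nm emission, delayed 400 μs). Enzyme levels gave signal/background 5-20.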

The target of assay [2] is T1, HCV genotype 1b (BK) NS3 modified enzyme with a R155K mutation (Hepatitis C virus genotype 1b, UniProt P26663, R1181K).
T1 construct: HCV genotype 1b (BK) NS3 modified enzyme
Nature of the assay: HCV NS3 protease time-resolved fluorescence (TRF) assay, genotype 1b R155K. It is filed as biochemical. Conditions: Ki 1b R155K. The essentials:
as §1

[3] abbreviates: genotype 1b (BK) NS3 R155K, single value.

Where a name gives a salt, the structure may show the parent alone.

Consider `C=CC1C[C@]1(NC(=O)[C@@H]1C[C@@H]2CN1C(=O)[C@H](C1CCCC1)NC(=O)O[C@@H]1CCC[C@H]1CC/C=C/Cc1c(nc3ccccc3c1OCCCN1CCN(C)CC1)O2)C(=O)NS(=O)(=O)C1CC1` (stereo partly drawn) [Example 88, (3aR,7S,10S,12R,21E,24aS)-7-cyclo pentyl-N-{(1R,2S)-1-[(cyclo-propylsulfonyl)carbamoyl]-2-ethenylcyclopropyl}-19-[3-(4-methylpiperazin-1-yl)propoxy]-5,8-dioxo-1,2,3,3a,5,6,7,8,11,12,20,23,24,24a-tetradecahydro-10H-9,12-methano-cyclopenta[18,19][1,10,3,6]dioxa diazacyclononadecino[11,2-b]quinoline-10-carboxamide], for which the values for the Ki in assay [1] and in assay [2] (setting [3]) were 4.4 nM and 0.34 nM, respectively.

`C=C[C@@H]1C[C@]1(NC(=O)[C@@H]1C[C@@H]2CN1C(=O)[C@H](C(C)(C)C)NC(=O)O[C@@H]1C[C@H]1CCCCCc1c(nc3ccccc3c1OCCCN(C)Cc1ccn[nH]1)O2)C(=O)NS(=O)(=O)C1(C)CC1` [Example 202, (1aR,5S,8S,10R,22aR)-5-tert-butyl-N-[(1R,2S)-2-ethenyl-1-{[(1-methylcyclopropyl)sulfonyl]carbamoyl}cyclopropyl]-17-{3-[methyl(1H-pyrazol-5-ylmethyl)amino]propoxy}-3,6-dioxo-1,1a,3,4,5,6,9,10,18, 19,20,21,22,22a-tetradecahydro-8H-7,10-methanocyclopropa[18,19][1,10,3,6] dioxadiazacyclononadecino[11,12-b] quinoline-8-carboxamide]: the values for the Ki in assay [1] and in assay [2] (setting [3]) were 0.95 nM and 0.05 nM, respectively.

In the case of `C=C[C@@H]1C[C@]1(NC(=O)[C@@H]1C[C@@H]2CN1C(=O)[C@H](C1CCCC1)NC(=O)O[C@@]1(C)C[C@@H]1CC/C=C/Cc1c(nc3ccccc3c1O)O2)C(=O)NS(=O)(=O)C1CC1` [Example 20, (1aS,5S,8S,10R,19E,22aS)-5-cyclopentyl-N-{(1R,2S)-1-[(cyclopropylsulfonyl)carbamoyl]-2-ethenylcyclopropyl}-17-hydroxy-1a-methyl-3,6-dioxo-1,1a,3,4,5,6,9,10,18,21,22,22a-dodecahydro-8H-7,10-methanocyclopropa[18,19][1,10,3,6]dioxadiazacyclononadecino[11,12-b]quinoline-8-carboxamide], the figures for the Ki in assay [1] and in assay [2] (setting [3]) were 22 nM and 0.55 nM, respectively.

As for `C=C[C@@H]1C[C@]1(NC(=O)[C@@H]1C[C@@H]2CN1C(=O)[C@H](C1CCCC1)NC(=O)N1CC[C@@H](C1)OCCC/C=C/Cc1c(nc3ccccc3c1OCC)O2)C(=O)NS(=O)(=O)C1CC1` [Example 16, (2R,4S,7S,13S,18E)-7-cyclopentyl-N-{(1R,2S)-1-[(cyclopropylsulfonyl)carbamoyl]-2-ethenylcyclo-propyl}-21-ethoxy-6,9-dioxo-3,4,6,7,8,9,12,13, 15,16,17,20-dodecahydro-2H,11H-2,5:10,13-dimethano[1,14,5,7,10]dioxatriazacyclodocosino [15,16-b]quinoline-4-carboxamide], the Ki in assay [1] is 70 nM; in assay [2] (setting [3]), 1.1 nM.

As for `C=C[C@@H]1C[C@]1(NC(=O)[C@@H]1C[C@@H]2CN1C(=O)[C@H](C(C)(C)C)NC(=O)O[C@@H]1C[C@H]1CCCCCc1c(nc3ccccc3c1OC1CC3CCC(C1)N3)O2)C(=O)NS(=O)(=O)C1(C)CC1` (single isomer, unassigned) [Example 279, trifluoroacetate], the Ki in assay [1] is 2.6 nM; in assay [2] (first of two values printed in the cell (not explained)) it was 0.012 nM; in assay [2] (second of two values printed in the cell (not explained)) it was 0.145 nM.

Regarding `C=C[C@@H]1C[C@]1(NC(=O)[C@@H]1C[C@@H]2CN1C(=O)[C@H](C1CCCCC1)NC(=O)O[C@@H]1C[C@H]1CCCCCc1c(nc3ccccc3c1OCCCSc1nccs1)O2)C(=O)NS(=O)(=O)C1(C)CC1` [Example 172], the results for the Ki in assay [1] and in assay [2] (setting [3]) were 14 nM and 1.1 nM, respectively.

Consider `C=C[C@@H]1C[C@]1(NC(=O)[C@@H]1C[C@@H]2CN1C(=O)[C@H](C1CCCC1)NC(=O)O[C@@H]1CCC[C@H]1CC/C=C/Cc1c(nc3ccccc3c1OCCCN)O2)C(=O)NS(=O)(=O)C1CC1` [Example 94, (3aR,7S,10S,12R,21E,24aS)-19-(3-aminopropoxy)-7-cyclopentyl-N-{(1R,2S)-1-[(cyclopropylsulfonyl)carbamoyl]-2-ethenylcyclopropyl}-5,8-dioxo-1,2,3,3a,5,6,7,8,11,12,20,23,24,24a-tetradecahydro-10H-9,12-methanocyclopenta[18,19][1,10,3,6]dioxadiazacyclononadecino[11,12-b]quinoline-10-carboxamide], for which the values for the Ki in assay [1] and in assay [2] (setting [3]) were 0.59 nM and 0.093 nM, respectively.

For `C=C[C@@H]1C[C@]1(NC(=O)[C@@H]1C[C@@H]2CN1C(=O)[C@H](C1CCCC1)NC(=O)O[C@@H]1CCC[C@H]1CC/C=C/Cc1c(nc3ccccc3c1OC)O2)C(=O)NS(=O)(=O)C1CC1` [Example 4, (3aR,7S,10S,12R,21E,24aS)-7-cyclo pentyl-N-{(1R,2S)-1-[(cyclopropylsulfonyl)carbamoyl]-2-ethenylcyclopropyl}-19-methoxy-5,8-dioxo-1,2,3,3a,5,6,7,8,11,12,20,23,24,24a-tetradeca hydro-10H-9,12-methanocyclopenta[18,19][1,10,3,6] dioxadiazacyclononadecino[11,12-b]quinoline-10-carboxamide], the Ki stood at 3.4 nM in assay [1] and 0.11 nM in assay [2] (setting [3]).

Consider `C=C[C@@H]1C[C@]1(NC(=O)[C@@H]1C[C@@H]2CN1C(=O)[C@H](C(C)(C)C)NC(=O)O[C@@H]1C[C@H]1CCCCCc1c(nc3ccccc3c1OCCCNC1CCCC1)O2)C(=O)NS(=O)(=O)C1(C)CC1` [Example 182, (1aR,5S,8S,10R,22aR)-5-tert-butyl-17-[3-(cyclopentylamino)propoxy]-N-[(1R,2S)-2-ethenyl-1-{[(1-methylcyclopropyl)sulfonyl]carbamoyl}cyclopropyl]-3,6-dioxo-1,1a,3,4,5,6,9,10, 18,19,20,21,22,22a-tetradecahydro-8H-7,10-methanocyclopropa[18,19][1,10,3,6] dioxadiazacyclononadecino[11,12-b] quinoline-8-carboxamide], for which the values for the Ki in assay [1] and in assay [2] (setting [3]) were 0.61 nM and 0.064 nM, respectively.

Consider `C=C[C@@H]1C[C@]1(NC(=O)[C@@H]1C[C@@H]2CN1C(=O)[C@H](C(C)(C)C)NC(=O)O[C@@H]1C[C@H]1CCCCCc1c(nc3ccccc3c1OCCCN1CCN(C)CC1)O2)C(=O)NS(=O)(=O)C1(C)CC1` [Example 131, (1aR,5S,8S,10R,22aR)-5-tert-butyl-N-[(1R,2S)-2-ethenyl-1-{[(1-methylcyclopropyl)sulfonyl]carbamoyl}cyclopropyl]-17-[3-(4-methylpiperazin-1-yl)propoxy]-3,6-dioxo-1,1a,3,4,5,6,9,10,18,19,20,21,22,22a-tetradecahydro-8H-7,10-methanocyclopropa[8,19][1,10,3,6]dioxadiazacyclononadecino[11,12-b]quinoline-8-carboxamide], for which the inhibitory constant (Ki) in assay [1] came out at 1.3 nM; in assay [2] (setting [3]), 0.11 nM.

Turning to `COc1c2c(nc3ccccc13)O[C@@H]1C[C@H]3C(=O)N[C@]4(C(=O)NS(=O)(=O)C5(C)CC5)C[C@H]4/C=C\CCCCC[C@H](NC(=O)O[C@@H]4C[C@H]4CCC/C=C/2)C(=O)N3C1` [Example 300, (1aR,5S,11Z,12aS,13aR,16S,19R,27E,31aR)-26-methoxy-N-[(1-methylcyclopropyl)sulfonyl]-3,15,33-trioxo-1,1a,3,4,5,6,7,8,9,10,12a,13,15,16,18,19,29,30,31,31a-icosahydro-5,17:16,19-dimethanodicyclopropa[12,13:28,29][1,20,3,14,17]dioxatriazacyclononacosino[21,22-b]quinoline-13a(14H)-carboxamide], the Ki was found to be 7.1 nM in assay [1] and 0.23 nM in assay [2] (setting [3]).

On to `C=C[C@@H]1C[C@]1(NC(=O)[C@@H]1C[C@@H]2CN1C(=O)[C@H](C(C)(C)C)NC(=O)O[C@@H]1C[C@H]1CCCCCc1c(nc3ccccc3c1OCCc1ccccn1)O2)C(=O)NS(=O)(=O)C1(C)CC1` [Example 217, (1aR,5S,8S,10R,22aR)-5-tert-butyl-N-[(1R,2S)-2-ethenyl-1-{[(1-methylcyclopropyl)sulfonyl]carbamoyl}cyclopropyl]-3,6-dioxo-17-[2-(pyridin-2-yl)ethoxy]-1,1a,3,4,5,6,9,10,18,19,20,21,22,22a-tetradecahydro-8H-7,10-methanocyclopropa[18,19][1,10,3,6] dioxadiazacyclononadecino[11,12-b]quinoline-8-carboxamide], for which the Ki was determined as 7.1 nM in assay [1] and 0.27 nM in assay [2] (setting [3]).

With `C=C[C@@H]1C[C@]1(NC(=O)[C@@H]1C[C@@H]2CN1C(=O)[C@H](C1CCCC1)NC(=O)O[C@@H]1C[C@H]1CC/C=C/Cc1c(nc3ccccc3c1OC)O2)C(=O)NS(=O)(=O)C1CC1` [Example 11, (1aR,5S,10R,19E,22aR)-5-cyclo pentyl-N-{(1R,2S)-1-[(cyclopropylsulfonyl)carbamoyl]-2-ethenylcyclopropyl}-17-methoxy-3,6-dioxo-1,1a, 3,4,5,6,9,10,18,21,22,22a-dodeca hydro-8H-7,10-methanocyclopropa[18,19][1,10,3,6] dioxadiazacyclononadecino[11,12-b] quinoline-8-carboxamide], the Ki came out at 11 nM in assay [1] and 0.26 nM in assay [2] (setting [3]).

For the molecule `C=C[C@@H]1C[C@]1(NC(=O)[C@@H]1C[C@@H]2CN1C(=O)[C@H](C1CCCC1)NC(=O)O[C@@H]1CCC[C@H]1CC/C=C/Cc1c(nc3cccc(Cl)c3c1OC)O2)C(=O)NS(=O)(=O)C1CC1` [Example 10, (3aR,7S,10S,12R,21E,24aS)-18-chloro-7-cyclopentyl-N-{(1R,2S)-1-[(cyclopropylsulfonyl)carbamoyl]-2-ethenylcyclopropyl}-19-methoxy-5,8-dioxo-1,2,3,3a,5,6,7,8,11,12,20,23,24,24a-tetradecahydro-10H-9,12-methanocyclopenta [18,19][1,10,3,6]dioxadiazacyclononadecino [11,12-b]quinoline-10-carboxamide], the Ki is 11 nM in assay [1] and 0.19 nM in assay [2] (setting [3]).
